Patent US10617734B2, “STAT3 and ERK signal pathway inhibitor comprising mogrosides and analogs thereof” (BEIJING UNIVERSITY OF AGRICULTURE, priority 2014, dated 2020)

Columns and labels:
[1] = test system: histiocytic lymphoma U937 cells; experiment: Cell cycle distribution, PI staining, flow cytometer; format: cell-based; conditions: 24 h
Excerpt: (§1) The influences of Mogroside I E1, Mogroside II A2 and mogrol on the cell cycle distribution of the histiocytic lymphoma U937 cells, the human melanoma A875 cells and the leukemia cells K562.
(§2) The cell cycle arrest achieved by drugs is an important approach to the inhibition of cancer cell proliferation.

[2] = test system: human melanoma A875 cells; experiment: as above; format: cell-based
Excerpt: as §1, §2

[3] = test system: phosphorylated ERK1/2 (P-ERK1/2); experiment: Western Blotting of phosphorylated ERK1/2 in A875 cells; format: cell-based, human; conditions: melanoma A875 cells, 10 μmol/L, 24 hours
Description: (§3) The inhibition of the STAT3 and ERK signal pathways achieved by Mogroside I E1, Mogroside II A2 and mogrol was detected by Western Blotting, specifically:
Group 2: human melanoma A875 cells (1×10^6 cells/well) were inoculated into a 6-well culture plate for staying overnight, and 0 and 10 μmol/L of Mogroside I E1, Mogroside II A2 and mogrol were added respectively, and the culture was continued for 24 hours;
(§4) After the termination of the cell culture, the culture solution was removed, and the residue was washed with PBS (0.01 mol/L, pH 7.4), and then a cell lysis solution containing protease inhibitors was added at an amount of 50 μl/well, and the mixture was placed in an ice bath for lysis at 4° C. for 30 min and then centrifuged at 14000 r/min for 10 min, and then total proteins were obtained from the supernatant;
(§5) The protein concentrations were measured with bovine serum albumin (BSA) as the standard. 50 μg of the total proteins was separated by polyacrylamide gel electrophoresis with 12% […], electrophoretically transferred to a PVDF membrane (polyvinylidene fluoride membrane), and blocked for 1 h by 5% of skim milk (containing 0.1% of Tween 20), and then antibodies p-STAT3 (Tyr705) and p-Erk1/2 as well as β-actin were added, and the primary antibody was incubated at 4° C. overnight (β-actin was used as reference in loading amount); the membrane was washed for 3 times with TBS-T, 5 min each time; secondary antibody marked by horseradish peroxidase (HRP) was added for incubation at room temperature for 1 h, the membrane was washed for 3 times with a wash solution (TBS-T), 10 min each time, and then ECL was added for incubation in dark for 5 min, and subsequently, a fluorescence imaging analyzer was used for image development and scanning analysis, and the results of Western Blotting detection are shown in FIGS. 4 to 6.

[4] = test system: cycle regulatory protein P21; experiment: Western Blotting of P21 in A875 cells; format: cell-based; conditions: human melanoma A875 cells, 10 μmol/L, 24 h
Description: (§6) The STAT3 and ERK signal pathways can regulate cyclins and apoptosis genes, and in order to verify the effects of […] and mogrol, the expression status of downstream genes of STAT3 and ERK was detected, wherein the influences of the three mogrosides and analogs thereof, i.e. Mogrol I E1, Mogrol II A2 and mogrol, on Bcl-2 and P21 proteins in the histiocytic lymphoma U937 cells, human melanoma A875 cells and leukemia cells K562 were determined, respectively.
(§7) The regulation of Bcl-2 and P21 proteins by mogrosides and analog thereof to the was detected by Western Blotting, specifically: histiocytic lymphoma U937 cells, human melanoma A875 cells and leukemia cells K562 (1×10^6 cells/well) were inoculated into a 6-well culture plate overnight, and 0 and 10 μmol/L of the mogrosides and analogs thereof were added respectively, and kept cultured for 24 h. […]
(§8) The protein concentration was measured with bovine serum albumin (BSA) as the standard. 50 μg of the total proteins were separated by polyacrylamide gel electrophoresis with 12% SDS, and electrophoretically transferred to a PVDF membrane (polyvinylidene fluoride membrane), and blocked for 1 h by 5% of skim milk (containing 0.1% of Tween 20), and then antibodies P21, Bcl-2 and β-actin were added, wherein the primary antibody was incubated at 4° C. overnight (β-actin was used as reference loading amount); the membrane was washed for 3 times with TBS-T, 5 min each time; secondary antibody marked by horseradish peroxidase (HRP) was added for incubation at room temperature for 1 h, the membrane was washed with rinse solution (TBS-T) for 3 times, 10 min each time, and then ECL was added for incubation in dark for 5 min, and subsequently, a fluorescence imaging analyzer was used for image development and scanning analysis.

leukemia cells K562 [5] = experiment: Cell cycle distribution, PI staining, flow cytometer; format: cell-based, human; conditions: leukemia cells K562, 10 μmol/L, 24 h
Excerpt: as §1, §2

lymphoma U937 cells = experiment: Cell apoptosis, Annexin V-FITC/PI, flow cytometer; format: cell-based; conditions: 10 μmol/L, 24 h
Description: Lymphoma U937 cells, human melanoma A875 cells and leukemia cells K562 in logarithmic growth phase were selected, and after the respective culture with 0 and 10 μmol/L of the mogrosides and analogs thereof (i.e. Mogroside I E1, Mogroside II A2 and mogrol) for 24 h, cells were collected and washed twice with 200 μl of cold PBS, and then the cells were collected again; 100 μl of binding buffer was added for re-suspending the cells, and after the addition of 2 μl of Annexin V-FITC and well mixing, the resulting mixture was placed in dark at room temperature for 10 min, and then 5 μl of propidium iodide (PI) was added and then well mixed; the mixture was placed in dark at room temperature for 10 min, and detected by flow cytometer, and the results are shown in FIGS. 13-15.

leukemia cells K562 [6] = experiment: Cell morphology, Hoechst 33258 staining, fluorescence microscope; format: cell-based, human; conditions: leukemia cells K562, 10, 100 and 250 μmol/L, 24-hour culture
Description: Lymphoma U937 cells, human melanoma A875 cells and leukemia cells K562 in logarithmic growth phase were selected, and the concentrations of the cells were adjusted to 1×10^4 cells/mL, and the cells were transferred to a 6-well plate for culture, and after the 24-hour culture, drugs were added to achieve final concentrations of 0, 10, 100 and 250 μmol/L, wherein only whole medium was added to the negative control groups, while Mogroside II A2 was added to the positive control groups, after 24-hour culture, waste solution was removed, and fixing solution was added to each well for fixing for 25 min, and then the resulting mixture was washed twice, 3 min each time, and then Hoechst 33258 staining solution was added for staining in dark at room temperature for 30 min, and the cell morphology variation was observed using a fluorescence microscope.

[7] = test system: anti-apoptotic protein Bcl-2; experiment: Western Blotting of Bcl-2 in A875 cells; format: cell-based; conditions: human melanoma A875 cells, 10 μmol/L, 24 h
Description: as §6, §7, §8

[8] = test system: phosphorylated ERK1/2 (P-ERK1/2); experiment: Western Blotting of phosphorylated ERK1/2 in U937 cells; format: cell-based; conditions: 10 μmol/L, 24 hours
Description: as §3
Group 1: histiocytic lymphoma U937 cells (1×10^6 cells/well) were inoculated into a 6-well culture plate for staying overnight, and 0 and 10 μmol/L of Mogroside I E1, Mogroside II A2 and mogrol were added respectively, and the culture was continued for 24 hours;
as §4, §5

C[C@H](CC[C@@H](O)C(C)(C)O)[C@H]1CC[C@@]2(C)[C@@H]3CC=C4[C@@H](CC[C@H](O)C4(C)C)[C@]3(C)[C@H](O)C[C@]12C [mogrol]
proportion of cells in G0/G1 phase with the rise of the concentration ([1]; U937 cells, 0, 1, 10, 150 and 250 μmol/L): gradually increased
cell cycle distribution (proportion of cells of G0/G1 phase) ([1]; U937 cells, 10 μmol/L): G0/G1 arrest
cell cycle distribution (proportion of cells in the G0/G1 phase) ([2]; human melanoma A875 cells, 10 μmol/L, 24 h): G0/G1 arrest
proportion of cells in the G0/G1 phase with the rise of the concentration ([2]; melanoma A875 cells, different concentrations (FIG. 12)): gradually increased
expression level of phosphorylated ERK1/2 (P-ERK1/2) [3]: significantly decreased
expression of cycle regulatory protein P21 [4]: significantly up-regulated
cell cycle distribution (cell cycle arrest) (leukemia cells K562 [5]): arrested
cell apoptosis (lymphoma U937 cells): induce the apoptosis
cell morphology variation (Hoechst 33258) (leukemia cells K562 [6]): identical to the results of Mogroside II A2
expression of anti-apoptotic protein Bcl-2 [7]: significantly down-regulated
expression level of phosphorylated ERK1/2 (P-ERK1/2) [8]: significantly decreased
